Experimental data taken from patent US4550186A, “Binuclear copper (II) carboxylates formed from amine-carboxyboranes” (Duke University, priority 1983, dated 1985).

How the values were obtained:
HMG CoA Reductase = molecular target: T1, HMG CoA Reductase (Mus musculus, UniProt Q01237); assay: In vivo liver enzyme study: HMG CoA reductase; conditions: CF1 liver after 16 days i.p.
T1 construct: 10% homogenates of CF1 male mouse liver; from tissue; host or cells: CF1 male mouse liver, post-mitochondrial supernatant
T1 sequence (Q01237 1-887): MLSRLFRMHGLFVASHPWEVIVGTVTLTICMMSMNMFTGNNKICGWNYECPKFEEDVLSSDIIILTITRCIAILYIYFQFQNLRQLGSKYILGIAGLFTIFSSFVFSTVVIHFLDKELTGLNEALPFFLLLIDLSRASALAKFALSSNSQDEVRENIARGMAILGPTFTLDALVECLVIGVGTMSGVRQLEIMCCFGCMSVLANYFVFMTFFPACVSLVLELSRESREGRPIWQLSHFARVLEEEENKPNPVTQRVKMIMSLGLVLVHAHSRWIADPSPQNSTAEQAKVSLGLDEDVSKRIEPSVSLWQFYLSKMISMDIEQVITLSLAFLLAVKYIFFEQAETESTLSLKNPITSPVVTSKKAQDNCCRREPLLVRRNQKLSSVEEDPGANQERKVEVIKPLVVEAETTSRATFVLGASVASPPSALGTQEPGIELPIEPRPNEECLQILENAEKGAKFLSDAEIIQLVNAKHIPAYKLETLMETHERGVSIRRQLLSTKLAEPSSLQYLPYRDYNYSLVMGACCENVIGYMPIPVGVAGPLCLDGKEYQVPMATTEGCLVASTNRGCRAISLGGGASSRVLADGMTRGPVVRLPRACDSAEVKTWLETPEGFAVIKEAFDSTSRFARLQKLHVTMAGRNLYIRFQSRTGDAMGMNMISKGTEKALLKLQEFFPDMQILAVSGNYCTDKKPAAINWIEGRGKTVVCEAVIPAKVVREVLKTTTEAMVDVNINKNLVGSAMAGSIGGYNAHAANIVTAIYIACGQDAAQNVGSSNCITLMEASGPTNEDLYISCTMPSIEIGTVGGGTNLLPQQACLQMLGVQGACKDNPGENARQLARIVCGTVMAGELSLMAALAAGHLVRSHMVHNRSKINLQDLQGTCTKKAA
Method: (§1) In vitro enzymatic studies were determined using 10% homogenates of CF1 male mouse liver with 50-200 μM of test drugs. In vivo enzymatic studies were determined using 10% homogenates of liver from CF1 male mice obtained after administering the agents for 16 days at a dose ranging from 2.5-20 mg/kg/day intraperitoneally. The liver homogenates for both in vitro and in vivo studies were prepared in 0.25M sucrose and 0.001M (ethylenedinitrilo)tetraacetic acid. Acetyl coenzyme A synthetase and adenosine triphosphate dependent citrate lyase activities were determined spectrophotometrically at 540 nm as the hydroxylamate of acetyl coenzyme A formed after 30 min at 37° C. Mitochondrial citrate exchange was determined by the procedure of Robinson et al [Eur. J. Biochem., 216, 63 (1970)] using ^14 C-sodium bicarbonate (41 mCi/mmol) incorporated into mitochondrial ^14 C-citrate after isolating rat mitochondria (9000 g×10 min) from the homogenates. The exchanges of the ^14 C-citrate were determined after incubating the mitochondrial fraction which was loaded with labeled citrate and test drugs for 10 min. Then the radioactivity was measured in the mitochondrial and supernantant fractions in scintillation fluid and expressed as a percentage. Cholesterol side chain oxidation was determined by the method of Kritchevsky and Tepper [Artherosclerosis, 18, 93 (1973)] using (26-^14 C) cholesterol (50 mCi/mmol) and mitochondria isolated from rat liver homogenates. […] Fatty acid synthetase activity was determined by the method of Brady et al [J. Biol. Chem., 235, 3093 (1960)] using [2-^14 C] malonyl-coenzyme A (37.5 mCi/mmol) which was incorporated into newly synthesized fatty acids that were extracted with ether and counted. Acyl transferase activity was determined with glycerol-3phosphate [L-2-^3 H(N)] […] HCl and counted. Phosphatidate phosphohydrolase activity was measured as the inorganic phosphate released after 30 min from phosphatidic acid by the method of Mavis et al [J. Lipid Res., 19, 467 (1978)]. […]

deoxyribonuclease = assay: In vitro deoxyribonuclease activity; assay type: biochemical, mouse; conditions: read-out: ID50, Deoxyribonuclease activity
Method: CF1 male mice (~30 g) were implanted with 2×10^6 Ehrlich ascites tumor cells, intraperitoneally on Day 0. Compound I was suspended by homogenation in 0.05% polysorbate.80-water and administered intraperitoneally at 10 and 20 mg/kg for 9 days to determine its effectiveness for inhibition of tumor growth. Mice were sacrificed on Day 10, and the ascites fluid was collected from the peritoneal cavity. The volume and ascrit (packed cell volume) were determined for each animal and the percent inhibition of tumor growth was calculated. For the metabolic studies, mice were treated on Days 8 and 9 with 10 mg/kg of Compound I, intraperitoneally. The animal was sacrificed on Day 10 and the ascites fluid harvested. The in vitro metabolic studies were performed at […] final concentration of Compound I.

[1] = test system: Cholesterol Side Chain Oxidation; assay: In vitro liver enzyme study: cholesterol side chain oxidation; assay type: biochemical, mouse
Method: In vitro enzymatic studies were determined using 10% homogenates of CF1 male mouse liver with 50-200 μM of test drugs. In vivo enzymatic studies were determined using 10% homogenates of liver from CF1 male mice obtained after administering the agents for 16 days at a dose ranging from 2.5-20 mg/kg/day intraperitoneally. The liver homogenates for both in vitro and in vivo studies were prepared in 0.25M sucrose and 0.001M (ethylenedinitrilo)tetraacetic acid. Acetyl coenzyme A synthetase and adenosine triphosphate dependent citrate lyase activities were determined spectrophotometrically at 540 nm as the hydroxylamate of acetyl coenzyme A formed after 30 min at 37° C. Mitochondrial citrate exchange was determined by the procedure of Robinson et al [Eur. J. Biochem., 216, 63 (1970)] using ^14 C-sodium bicarbonate (41 mCi/mmol) incorporated into mitochondrial ^14 C-citrate after isolating rat mitochondria (9000 g×10 min) from the homogenates. The exchanges of the ^14 C-citrate were determined after incubating the mitochondrial fraction which was loaded with labeled citrate and test drugs for 10 min. Then the radioactivity was measured in the mitochondrial and supernantant fractions in scintillation fluid and expressed as a percentage. […] Acyl transferase activity was determined with glycerol-3phosphate [L-2-^3 H(N)] […] HCl and counted. […]

Acetyl CoA Carboxylase = molecular target: T2, Acetyl CoA Carboxylase (Mus musculus, UniProt Q5SWU9); assay: In vivo liver enzyme study: acetyl CoA carboxylase; conditions: CF1 liver after 16 days i.p.
T2 construct: 10% homogenates of CF1 male mouse liver; from tissue; host or cells: CF1 male mouse liver, 10% homogenate
Method: as §1

[2] = test system: sn-Glycerol-3-phosphate Acyl Transferase; assay: In vitro liver enzyme study: sn-glycerol-3-phosphate acyl transferase; assay type: biochemical, mouse; conditions: in vitro CF1 liver
Method: as §1

{Cu[(CH3)3 N.BH2 CO2 ]2.(CH3)3 N.BH2 COOH} [Compound I]
HMG CoA Reductase (HMG CoA Reductase; 2.5 mg/kg): 112 ± 8% of control | HMG CoA Reductase (HMG CoA Reductase; 5.0 mg/kg): 108 ± 9% of control | HMG CoA Reductase (HMG CoA Reductase; 10 mg/kg): 102 ± 8% of control | IC50 (deoxyribonuclease): 682 µM | Cholesterol Side Chain Oxidation ([1]; in vitro CF1 liver, 100 μM): 152 ± 7 Percent Control | degradation of cholesterol by oxidation of the side chain accelerated ([1]; in vitro, in the presence of drug): 52% | Acetyl CoA Carboxylase (Acetyl CoA Carboxylase; 2.5 mg/kg): 103 ± 6% of control | Acetyl CoA Carboxylase (Acetyl CoA Carboxylase; 5.0 mg/kg): 95% of control | Acetyl CoA Carboxylase (Acetyl CoA Carboxylase; 10 mg/kg): 120 ± 7% of control | sn-Glycerol-3-phosphate Acyl Transferase ([2]; 50 μM): 108 ± 6 Percent Control | sn-Glycerol-3-phosphate Acyl Transferase ([2]; 100 μM): 92 ± 8 Percent Control | sn-Glycerol-3-phosphate Acyl Transferase ([2]; 200 μM): 89 ± 6 Percent Control
